Reference: patent publication US20080021026A1, “BENZOTHIOPHENE INHIBITORS OF RHO KINASE” (priority 2006, published 2008)
Where two headings read alike, the source gives them in different places.

What was measured:
[1] = target: T1, recombinant N-terminal GST-tagged human Rho kinase 1 (ROCK1, amino acids 1-535) (Homo sapiens, UniProt Q13464); assay: In vitro Rho kinase assay (luciferase-based ATP consumption), ROCK1; format: biochemical
T1 construct: ROCK1, amino acids 1-535; purchased Invitrogen Inc. PV-3691
Procedure, shortened: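 ATP depletion measured by firefly luciferase luminescence after 2 h at 30 °C, with inhibition raising signal and activity expressed relative to H-1152P. Reaction: 0.82 μg/ml recombinant GST-tagged ROCK1 (aa 1-535), S6 peptide 100 μg/ml, […], pH 7.5 Tris buffer.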

[2] = target: T2, recombinant N-terminal GST-tagged human Rho kinase 2 (ROCK2, amino acids 1-552) (Homo sapiens, UniProt O75116); assay: In vitro Rho kinase assay (luciferase-based ATP consumption), ROCK2; format: biochemical
T2 construct: ROCK2, amino acids 1-552; purchased Invitrogen Inc. PV3759
Procedure, shortened: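 Luciferase-based luminescence of leftover ATP after 2 h at 30 °C, where inhibition raises signal, reports activity of GST-tagged ROCK2 (aa 1-552) at 0.82 μg/ml. Conditions: S6 peptide 100 μg/ml, […], pH 7.5 Tris buffer. Results given as percent of H-1152P control activity.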

[3] = recombinant GST-tagged human ROCK1, luciferase-based ATP consumption, read-out: ROCK1 IC50
[4] = recombinant GST-tagged human ROCK2, luciferase-based ATP consumption, read-out: ROCK2 IC50

T1 sequence (Q13464 1-535): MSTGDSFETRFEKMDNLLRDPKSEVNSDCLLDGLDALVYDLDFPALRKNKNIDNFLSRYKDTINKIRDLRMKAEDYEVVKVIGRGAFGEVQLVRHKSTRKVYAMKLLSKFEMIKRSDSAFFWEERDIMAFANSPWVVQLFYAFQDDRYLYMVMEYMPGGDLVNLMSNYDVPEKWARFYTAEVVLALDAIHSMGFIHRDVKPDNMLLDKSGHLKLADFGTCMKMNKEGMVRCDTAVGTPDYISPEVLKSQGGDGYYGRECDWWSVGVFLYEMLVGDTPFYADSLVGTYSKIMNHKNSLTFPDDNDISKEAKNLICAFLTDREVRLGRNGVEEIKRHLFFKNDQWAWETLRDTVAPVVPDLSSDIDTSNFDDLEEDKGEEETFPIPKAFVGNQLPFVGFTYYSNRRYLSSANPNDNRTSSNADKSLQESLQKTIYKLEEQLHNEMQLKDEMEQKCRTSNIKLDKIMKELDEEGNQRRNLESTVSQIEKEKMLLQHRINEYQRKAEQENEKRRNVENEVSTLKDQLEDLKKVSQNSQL
T2 sequence (O75116 1-552): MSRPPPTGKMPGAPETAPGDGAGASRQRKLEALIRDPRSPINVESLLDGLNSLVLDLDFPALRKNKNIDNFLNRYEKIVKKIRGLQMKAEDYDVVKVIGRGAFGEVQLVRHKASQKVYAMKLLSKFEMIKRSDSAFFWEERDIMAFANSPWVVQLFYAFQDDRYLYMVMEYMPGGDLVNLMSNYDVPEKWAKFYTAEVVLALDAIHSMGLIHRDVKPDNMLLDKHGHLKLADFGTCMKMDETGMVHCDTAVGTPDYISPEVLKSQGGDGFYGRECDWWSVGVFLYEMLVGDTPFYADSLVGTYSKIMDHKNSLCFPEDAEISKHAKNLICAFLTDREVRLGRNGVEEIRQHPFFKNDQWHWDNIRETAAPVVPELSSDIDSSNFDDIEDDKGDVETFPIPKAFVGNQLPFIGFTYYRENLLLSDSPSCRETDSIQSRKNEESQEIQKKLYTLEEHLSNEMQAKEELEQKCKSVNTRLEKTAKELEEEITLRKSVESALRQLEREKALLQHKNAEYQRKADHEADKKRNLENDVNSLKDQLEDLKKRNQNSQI

| IC50 [1, 3] [µM] | IC50 [2, 4] [µM] | SMILES | IC50 ([1]; ROCK1 IC50, recombinant GST-tagged human ROCK1, luciferase-based ATP consumption) [µM] | IC50 ([2]; ROCK2 IC50, recombinant GST-tagged human ROCK2, luciferase-based ATP consumption) [µM] |
| --- | --- | --- | --- | --- |
| < 5 | < 5 | Cc1c(-c2ccnc(N)n2)sc2ccc(CNC(=O)c3ccc4c(c3)OCO4)cc12 [Example 172, Cc1c(sc2ccc(CNC(═O)c3ccc4OCOc4c3)cc12)-c5ccnc(N)n5] | – | – |
| < 5 | < 5 | COc1cc(C=CC(=O)NCc2ccc3sc(-c4ccnc(N)n4)c(C)c3c2)ccc1O [Example 255, COc1cc(C═CC(═O)NCc2ccc3sc(c(C)c3c2)-c4ccnc(N)n4)ccc1O] | – | – |
| < 5 | < 5 | Cc1cc(C(=O)NCc2ccc3sc(-c4ccnc(N)n4)c(C)c3c2)cc(Cl)n1 [Example 187, Cc1cc(cc(Cl)n1)C(═O)NCc2ccc3sc(c(C)c3c2)-c4ccnc(N)n4] | – | – |
| < 5 | < 5 | Cc1c(-c2ccnc(N)n2)sc2ccc(CNC(=O)Cc3ccc(O)c(F)c3)cc12 [Example 186, Cc1c(sc2ccc(CNC(═O)Cc3ccc(O)c(F)c3)cc12)-c4ccnc(N)n4] | – | – |
| < 5 | < 5 | Cc1c(-c2ccnc(N)n2)sc2ccc(CNC(=O)Cc3c(F)cccc3F)cc12 [Example 188, Cc1c(sc2ccc(CNC(═O)Cc3c(F)cccc3F)cc12)-c4ccnc(N)n4] | – | – |
| < 5 | < 5 | Cc1c(-c2ccnc(N)n2)sc2ccc(CNC(=O)c3ccnc(Cl)c3)cc12 [Example 150, Cc1c(sc2ccc(CNC(═O)c3ccnc(Cl)c3)cc12)-c4ccnc(N)n4] | – | – |
| – | – | Cc1c(-c2ccnc(N)n2)sc2ccc(CNC(=O)c3ccc([N+](=O)[O-])cc3Cl)cc12 [Example 266, Cc1c(sc2ccc(CNC(═O)c3ccc(cc3Cl)[N+]([O−])═O)cc12)-c4ccnc(N)n4] | > 5 | < 5 |
| < 5 | < 5 | Cc1c(-c2ccnc(N)n2)sc2ccc(CNC(=O)c3cc(C(C)C)cc(C(C)C)c3O)cc12 [Example 298, CC(C)c1cc(C(C)C)c(O)c(c1)C(═O)NCc2ccc3sc(c(C)c3c2)-c4ccnc(N)n4] | – | – |
| < 5 | < 5 | Cc1c(-c2ccnc(N)n2)sc2ccc(CNC(=O)c3ccc(Cl)c(Br)c3)cc12 [Example 315, Cc1c(sc2ccc(CNC(═O)c3ccc(Cl)c(Br)c3)cc12)-c4ccnc(N)n4] | – | – |
| > 5 | > 5 | Cc1c(-c2ccnc(N)n2)sc2ccc(CNC(=O)C(C)c3cccc(C(=O)c4ccccc4)c3)cc12 (stereo not shown) [Example 324, CC(C(═O)NCc1ccc2sc(c(C)c2c1)-c3ccnc(N)n3)c4cccc(c4)C(═O)c5ccccc5] | – | – |
| > 5 | < 5 | Cc1c(-c2ccnc(N)n2)sc2ccc(CNC(=O)c3ccccc3[N+](=O)[O-])cc12 [Example 179, Cc1c(sc2ccc(CNC(═O)c3ccccc3[N+]([O−])═O)cc12)-c4ccnc(N)n4] | – | – |
| > 5 | < 5 | Cc1c(-c2ccnc(N)n2)sc2ccc(CNC(=O)c3cccc(F)c3)cc12 [Example 124, Cc1c(sc2ccc(CNC(═O)c3cccc(F)c3)cc12)-c4ccnc(N)n4] | – | – |
| < 5 | < 5 | Cc1c(-c2ccnc(N)n2)sc2ccc(Nc3cncc(O)c3)cc12 [Example 68, 5-(2-(2-Aminopyrimidin-4-yl)-3-methylbenzo[b]thiophen-5-ylamino)pyridin-3-ol] | – | – |
| < 5 | < 5 | Cc1c(-c2ccnc(N)n2)sc2ccc(Nc3ccnc(O)n3)cc12 [Example 75, 4-(2-(2-Aminopyrimidin-4-yl)-3-methylbenzo[b]thiophen-5-ylamino)pyrimidin-2-ol] | – | – |
| > 5 | < 5 | Cc1c(-c2ccnc(N)n2)sc2ccc(CNC(=O)c3cn(C)cn3)cc12 [Example 114, Cc1c(sc2ccc(CNC(═O)c3cn(C)cn3)cc12)-c4ccnc(N)n4] | – | – |

| SMILES | IC50 [1, 3] [µM] | IC50 [2, 4] [µM] | IC50 ([1]; ROCK1 IC50, recombinant GST-tagged human ROCK1, luciferase-based ATP consumption) [µM] | IC50 ([2]; ROCK2 IC50, recombinant GST-tagged human ROCK2, luciferase-based ATP consumption) [µM] |
| --- | --- | --- | --- | --- |
| Cc1c(-c2ccnc(N)n2)sc2ccc(CNC(=O)C(C)c3ccc(CC(C)C)cc3)cc12 (stereo not shown) [Example 274, CC(C)Cc1ccc(cc1)C(C)C(═O)NCc2ccc3sc(c(C)c3c2)-c4ccnc(N)n4] | > 5 | > 5 | – | – |
| CCCc1ccc(C(=O)NCc2ccc3sc(-c4ccnc(N)n4)c(C)c3c2)cc1 [Example 171, CCCc1ccc(cc1)C(═O)NCc2ccc3sc(c(C)c3c2)-c4ccnc(N)n4] | > 5 | > 5 | – | – |
